# Tests used:
# [1] = tested on: ECHORC (Watergrass (Calif.)); experiment: Preemergence weed control under flooded paddy conditions; format: in vivo, Echinochloa oryzoides; conditions: rated 3-4 weeks after treatment
# Method in brief: (§1)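 Herbicidal effect is scored visually on a 0-9 scale against an untreated control, three to four weeks after compounds are pipetted into the flood water (1.5 to 3 cm deep) over seeds planted in silt loam at 0.5 cm depth. Rates: about 0.0313 to 0.500 kg/ha.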
# ECHCG (Barnyardgrass) = experiment: Preemergence herbicidal evaluation; format: in vivo, Echinochloa crus-galli; conditions: rated 4-5 weeks after treatment
# Method in brief: (§2)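 Visual 0-9 rating vs control (stand, vigor, malformation, size, chlorosis, overall appearance), scored 4-5 wk after spraying. Seeded soil cups were treated preemergence with compound in aqueous acetone, ~0.0156-0.500 kg/ha equivalent.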
# [2] = tested on: IPOHE (Morningglory, Ivyleaf); experiment: Postemergence herbicidal evaluation; format: in vivo, Ipomoea hederacea; conditions: postemergence
# Method in brief: (§3)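 Two-week seedlings sprayed postemergence at 40 psi; formulation: 1:1 acetone/water, 0.5% TWEEN 20; application ≈0.0156–0.500 kg/ha. Greenhouse grow-out, then 0–9 visual scoring at 4–5 weeks.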
# [3] = tested on: IPOHE (Morningglory, Ivyleaf); experiment: Preemergence herbicidal evaluation; format: in vivo, Ipomoea hederacea; conditions: rated 4-5 weeks after treatment
# Method in brief: as §2
# [4] = tested on: TRZAWR (Wheat, Winter, cv Riband); experiment: Postemergence herbicidal evaluation; format: in vivo, Triticum aestivum; conditions: postemergence
# Method in brief: as §3
# SETVI (Foxtail, Green) [5] = experiment: Postemergence herbicidal evaluation; format: in vivo, Setaria viridis; conditions: postemergence
# Method in brief: as §3
# ABUTH (Velvetleaf) = experiment: Preemergence herbicidal evaluation; format: in vivo, Abutilon theophrasti; conditions: rated 4-5 weeks after treatment
# Method in brief: as §2
# GALAP (Galium) = experiment: Postemergence herbicidal evaluation; format: in vivo, Galium aparine; conditions: postemergence
# Method in brief: as §3
# MOOVA (Monochoria) = experiment: Preemergence weed control under flooded paddy conditions; format: in vivo, Monochoria vaginalis; conditions: rated 3-4 weeks after treatment
# Method in brief: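 Seeds or propagules sown in top 0.5 cm of silt loam soil, flooded 1.5 to 3 cm above surface throughout. Compound in 50/50 v/v aqueous/acetone pipetted into flood water at about 0.0313 to 0.500 kg/ha. Visual 0-9 rating versus control after three to four weeks in greenhouse.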
# CYPIR (Rice Flatsedge) = experiment: as above; format: in vivo, Cyperus iria; conditions: rated 3-4 weeks after treatment
# Method in brief: as §1
# ZEAMX (Corn, Field) = experiment: Preemergence herbicidal evaluation; format: in vivo, Zea mays; conditions: rated 4-5 weeks after treatment
# Method in brief: as §2
# SETVI (Foxtail, Green) [6] = experiment: Preemergence herbicidal evaluation; format: in vivo, Setaria viridis; conditions: rated 4-5 weeks after treatment
# Method in brief: as §2
# [7] = rate 0.0156 kg/ha, rating scale 0-9
# [8] = rate 0.0313 kg/ha, rating scale 0-9
# [9] = rate 0.0625 kg/ha, rating scale 0-9
# [10] = rate 0.1250 kg/ha, rating scale 0-9
# [11] = rate 0.2500 kg/ha, rating scale 0-9
structure (smiles),measurement,setting,value
"Cc1cc(C)cc(CN2C(=O)CSC2=Nc2cc(-n3c(=O)cc(C(F)(F)F)n(C)c3=O)c(F)cc2Cl)c1 [Compound 146, 3-{4-Chloro-5-{[3-(3,5-dimethylbenzyl)-4-oxo-2-thiazolidinylidene]amino}-2-fluorophenyl}-1-methyl-6-(trifluoromethyl)-2,4(1H,3H)-pyrimidinedione]","herbicidal effect rating, ECHORC",[1]; 0.0313 kg/ha,9.0
same,"herbicidal effect rating, ECHORC",[1]; 0.0625 kg/ha,9.0
same,"herbicidal effect rating, ECHORC",[1]; 0.1250 kg/ha,9.0
same,"herbicidal effect rating, ECHORC",[1]; 0.2500 kg/ha,9.0
same,Preemergence herbicidal rating ECHCG,ECHCG (Barnyardgrass); [7],0.0
same,Preemergence herbicidal rating ECHCG,ECHCG (Barnyardgrass); [8],0.0
same,Preemergence herbicidal rating ECHCG,ECHCG (Barnyardgrass); [9],0.0
same,Preemergence herbicidal rating ECHCG,ECHCG (Barnyardgrass); [10],0.0
same,Preemergence herbicidal rating ECHCG,ECHCG (Barnyardgrass); [11],0.0
same,Herbicidal rating IPOHE,[2]; rate 0.0156 kg/ha,9.0
same,Herbicidal rating IPOHE,[2]; rate 0.0313 kg/ha,9.0
same,Herbicidal rating IPOHE,[2]; rate 0.0625 kg/ha,9.0
same,Preemergence herbicidal rating IPOHE,[3]; [7],0.0
same,Preemergence herbicidal rating IPOHE,[3]; [8],0.0
same,Preemergence herbicidal rating IPOHE,[3]; [9],0.0
same,Preemergence herbicidal rating IPOHE,[3]; [10],0.0
same,Preemergence herbicidal rating IPOHE,[3]; [11],0.0
same,Herbicidal rating TRZAWR,[4]; rate 0.0156 kg/ha,2.0
same,Herbicidal rating TRZAWR,[4]; rate 0.0313 kg/ha,3.5
same,Herbicidal rating TRZAWR,[4]; rate 0.0625 kg/ha,4.5
same,Herbicidal rating SETVI,"SETVI (Foxtail, Green) [5]; rate 0.0156 kg/ha",1.0
same,Herbicidal rating SETVI,"SETVI (Foxtail, Green) [5]; rate 0.0313 kg/ha",2.0
same,Herbicidal rating SETVI,"SETVI (Foxtail, Green) [5]; rate 0.0625 kg/ha",3.0
same,Preemergence herbicidal rating ABUTH,ABUTH (Velvetleaf); [7],0.0
same,Preemergence herbicidal rating ABUTH,ABUTH (Velvetleaf); [9],1.0
same,Preemergence herbicidal rating ABUTH,ABUTH (Velvetleaf); [10],9.0
same,Preemergence herbicidal rating ABUTH,ABUTH (Velvetleaf); [11],9.0
same,Herbicidal rating GALAP,GALAP (Galium); rate 0.0156 kg/ha,2.0
same,Herbicidal rating GALAP,GALAP (Galium); rate 0.0313 kg/ha,2.0
same,Herbicidal rating GALAP,GALAP (Galium); rate 0.0625 kg/ha,4.0
same,"herbicidal effect rating, MOOVA",MOOVA (Monochoria); 0.0313 kg/ha,4.0
same,"herbicidal effect rating, MOOVA",MOOVA (Monochoria); 0.0625 kg/ha,6.0
same,"herbicidal effect rating, MOOVA",MOOVA (Monochoria); 0.1250 kg/ha,6.0
same,"herbicidal effect rating, MOOVA",MOOVA (Monochoria); 0.2500 kg/ha,9.0
same,"herbicidal effect rating, CYPIR",CYPIR (Rice Flatsedge); 0.0313 kg/ha,4.0
same,"herbicidal effect rating, CYPIR",CYPIR (Rice Flatsedge); 0.0625 kg/ha,6.0
same,"herbicidal effect rating, CYPIR",CYPIR (Rice Flatsedge); 0.1250 kg/ha,6.0
same,"herbicidal effect rating, CYPIR",CYPIR (Rice Flatsedge); 0.2500 kg/ha,7.0
same,Preemergence herbicidal rating ZEAMX,"ZEAMX (Corn, Field); [7]",0.0
same,Preemergence herbicidal rating ZEAMX,"ZEAMX (Corn, Field); [8]",0.0
same,Preemergence herbicidal rating ZEAMX,"ZEAMX (Corn, Field); [9]",0.0
same,Preemergence herbicidal rating ZEAMX,"ZEAMX (Corn, Field); [10]",0.0
same,Preemergence herbicidal rating ZEAMX,"ZEAMX (Corn, Field); [11]",0.0
same,Preemergence herbicidal rating SETVI,"SETVI (Foxtail, Green) [6]; [7]",0.0
same,Preemergence herbicidal rating SETVI,"SETVI (Foxtail, Green) [6]; [8]",0.0
same,Preemergence herbicidal rating SETVI,"SETVI (Foxtail, Green) [6]; [9]",0.0
same,Preemergence herbicidal rating SETVI,"SETVI (Foxtail, Green) [6]; [10]",3.0
same,Preemergence herbicidal rating SETVI,"SETVI (Foxtail, Green) [6]; [11]",5.0
"Cn1c(C(F)(F)F)cc(=O)n(-c2cc(N=C3SCC(=O)N3C3CCC3)c(Cl)cc2F)c1=O [Compound 168, 3-{4-Chloro-5-[(3-cyclobutyl-4-oxo-2-thiazolidinylidene)amino]-2-fluorophenyl}-1-methyl-6-(trifluoromethyl)-2,4(1H,3H)-pyrimidinedione]","herbicidal effect rating, ECHORC",[1]; 0.0313 kg/ha,0.0
same,"herbicidal effect rating, ECHORC",[1]; 0.0625 kg/ha,0.0
same,"herbicidal effect rating, ECHORC",[1]; 0.1250 kg/ha,0.0
same,"herbicidal effect rating, ECHORC",[1]; 0.2500 kg/ha,0.0
same,Preemergence herbicidal rating ECHCG,ECHCG (Barnyardgrass); 0.0156 kg/ha,0.0
same,Preemergence herbicidal rating ECHCG,ECHCG (Barnyardgrass); 0.0313 kg/ha,0.0
same,Preemergence herbicidal rating ECHCG,ECHCG (Barnyardgrass); 0.0625 kg/ha,0.0
same,Preemergence herbicidal rating ECHCG,ECHCG (Barnyardgrass); 0.1250 kg/ha,0.0
same,Preemergence herbicidal rating ECHCG,ECHCG (Barnyardgrass); 0.2500 kg/ha,0.0
same,Herbicidal rating IPOHE,[2]; rate 0.0156 kg/ha,5.0
same,Herbicidal rating IPOHE,[2]; rate 0.0313 kg/ha,9.0
same,Herbicidal rating IPOHE,[2]; rate 0.0625 kg/ha,9.0
same,Preemergence herbicidal rating IPOHE,[3]; 0.0156 kg/ha,0.0
same,Preemergence herbicidal rating IPOHE,[3]; 0.0313 kg/ha,0.0
same,Preemergence herbicidal rating IPOHE,[3]; 0.0625 kg/ha,0.0
same,Preemergence herbicidal rating IPOHE,[3]; 0.1250 kg/ha,3.0
same,Preemergence herbicidal rating IPOHE,[3]; 0.2500 kg/ha,4.0
same,Herbicidal rating TRZAWR,[4]; rate 0.0156 kg/ha,3.5
same,Herbicidal rating TRZAWR,[4]; rate 0.0313 kg/ha,3.5
same,Herbicidal rating TRZAWR,[4]; rate 0.0625 kg/ha,4.0
same,Herbicidal rating SETVI,"SETVI (Foxtail, Green) [5]; rate 0.0156 kg/ha",0.0
same,Herbicidal rating SETVI,"SETVI (Foxtail, Green) [5]; rate 0.0313 kg/ha",0.0
same,Herbicidal rating SETVI,"SETVI (Foxtail, Green) [5]; rate 0.0625 kg/ha",3.0
same,Preemergence herbicidal rating ABUTH,ABUTH (Velvetleaf); 0.0156 kg/ha,0.0
same,Preemergence herbicidal rating ABUTH,ABUTH (Velvetleaf); 0.0313 kg/ha,0.0
same,Preemergence herbicidal rating ABUTH,ABUTH (Velvetleaf); 0.0625 kg/ha,4.0
same,Preemergence herbicidal rating ABUTH,ABUTH (Velvetleaf); 0.1250 kg/ha,9.0
same,Preemergence herbicidal rating ABUTH,ABUTH (Velvetleaf); 0.2500 kg/ha,9.0
same,Herbicidal rating GALAP,GALAP (Galium); rate 0.0156 kg/ha,0.0
same,Herbicidal rating GALAP,GALAP (Galium); rate 0.0313 kg/ha,1.0
same,Herbicidal rating GALAP,GALAP (Galium); rate 0.0625 kg/ha,3.0
same,"herbicidal effect rating, MOOVA",MOOVA (Monochoria); 0.0313 kg/ha,6.0
same,"herbicidal effect rating, MOOVA",MOOVA (Monochoria); 0.0625 kg/ha,6.0
same,"herbicidal effect rating, MOOVA",MOOVA (Monochoria); 0.1250 kg/ha,6.0
same,"herbicidal effect rating, MOOVA",MOOVA (Monochoria); 0.2500 kg/ha,7.0
same,"herbicidal effect rating, CYPIR",CYPIR (Rice Flatsedge); 0.0313 kg/ha,0.0
same,"herbicidal effect rating, CYPIR",CYPIR (Rice Flatsedge); 0.0625 kg/ha,0.0
same,"herbicidal effect rating, CYPIR",CYPIR (Rice Flatsedge); 0.1250 kg/ha,0.0
same,"herbicidal effect rating, CYPIR",CYPIR (Rice Flatsedge); 0.2500 kg/ha,0.0
same,Preemergence herbicidal rating ZEAMX,"ZEAMX (Corn, Field); 0.0156 kg/ha",0.0
same,Preemergence herbicidal rating ZEAMX,"ZEAMX (Corn, Field); 0.0313 kg/ha",0.0
same,Preemergence herbicidal rating ZEAMX,"ZEAMX (Corn, Field); 0.0625 kg/ha",0.0
same,Preemergence herbicidal rating ZEAMX,"ZEAMX (Corn, Field); 0.1250 kg/ha",0.0
same,Preemergence herbicidal rating ZEAMX,"ZEAMX (Corn, Field); 0.2500 kg/ha",0.0
same,Preemergence herbicidal rating SETVI,"SETVI (Foxtail, Green) [6]; 0.0156 kg/ha",0.0
same,Preemergence herbicidal rating SETVI,"SETVI (Foxtail, Green) [6]; 0.0313 kg/ha",0.0
same,Preemergence herbicidal rating SETVI,"SETVI (Foxtail, Green) [6]; 0.0625 kg/ha",0.0
same,Preemergence herbicidal rating SETVI,"SETVI (Foxtail, Green) [6]; 0.1250 kg/ha",0.0
same,Preemergence herbicidal rating SETVI,"SETVI (Foxtail, Green) [6]; 0.2500 kg/ha",5.0

# From US20020137929A1, “1 - (3-heterocyclylphenyl) isothiourea, -isourea, -guanidine and -amidine herbicidal agents” (Intellectual Property Department, BASF Aktiengesellschaft, priority 1998, published 2002)
